From the supplement of paper PMC11208160

Assay: recombinant UMI read abundance after kanamycin selection (control-corrected) (log10(CPM+1)); higher = more efficient recombination; extreme values may be limits of the assay; sequences stand for … in AGTGCAGAGAAAATCGGCCAGTTTTCTCTGCCTGCAGTCCGCATGCCGTGGGACCCCTTGGGTTCTAACCTGTTGCCTAGATTTATGCAGCGGACTGCCTTTCTCCCAAAGTGATAAACCGG…AGGTTGGTTTCACT; site = the 11-nt donor
Summary of the method: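 Sequenced counts of recombinant UMIs were turned into CPM, averaged across replicates and scaled with control-derived factors. The reported figure is log10(CPM+1). Those UMIs, each 12 nt long, tagged donor and donor-binding-loop pairs on a plasmid with a promoterless kanamycin gene, screened as a pool in Escherichia coli with IPTG (0.07 mM) plus kanamycin or without selection.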
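Note: IS621 bridge recombinase in Escherichia coli cells against a fixed T5 target plasmid.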

Row | Sequence | recombinant UMI read abundance (log10)
1 | GGCAGAGCATGGACCGGTTTTCCCGGTAATCCGTATTTGCC (site GGCAGAGCTGG) | 0
2 | GGCCAACCATGGACCGGTTTTCCCGGTAATCCGTATTTGTT (site GGCCAACCTAA) | 0.00804
3 | GGCCAACCATGGACCGGTTTTCCCGGTAATCCGTATTTGTT (site GGCCACCCTAA) | 0.0125
4 | GGCCAACCATGGACCGGTTTTCCCGGTAATCCGTATTTGTT (site GGCCAGCCTAA) | 0.0207
5 | GGCCAACCATGGACCGGTTTTCCCGGTAATCCGTATTTGTT (site GGCCATCCTAA) | 0.00632
6 | GGCCACCCATGGACCGGTTTTCCCGGTAATCCGTATTTGCG (site GGCCACCCTCG) | 0.00687
7 | GGCCACCCATGGACCGGTTTTCCCGGTAATCCGTATTTGCT (site GGCCACCCTAA) | 0.0723
8 | GGCCACCCATGGACCGGTTTTCCCGGTAATCCGTATTTGCT (site GGCCACCCTAC) | 0.0158
9 | GGCCACCCATGGACCGGTTTTCCCGGTAATCCGTATTTGCT (site GGCCACCCTAG) | 0
10 | GGCCACCCATGGACCGGTTTTCCCGGTAATCCGTATTTGCT (site GGCCACCCTAT) | 0.00294
11 | GGCCACCCATGGACCGGTTTTCCCGGTAATCCGTATTTGGT (site GGCCACCCTAA) | 0.113
12 | GGCCACCCATGGACCGGTTTTCCCGGTAATCCGTATTTGGT (site GGCCACCCTAC) | 0.00471
13 | GGCCACCCATGGACCGGTTTTCCCGGTAATCCGTATTTGGT (site GGCCACCCTAG) | 0
14 | GGCCACCCATGGACCGGTTTTCCCGGTAATCCGTATTTGGT (site GGCCACCCTAT) | 0.0141
15 | GGCCAGTCATGGACCGGTTTTCCCGGTAATCCGTATTTGCA (site GGCCAGTCTTG) | 2.73
16 | GGCCATCCATGGACCGGTTTTCCCGGTAATCCGTATTTGGC (site GGCCATCCTGC) | 0
17 | GGCCATCCATGGACCGGTTTTCCCGGTAATCCGTATTTGTT (site GGCCAACCTAA) | 0
18 | GGCCATCCATGGACCGGTTTTCCCGGTAATCCGTATTTGTT (site GGCCACCCTAA) | 0.0125
19 | GGCCATCCATGGACCGGTTTTCCCGGTAATCCGTATTTGTT (site GGCCAGCCTAA) | 0.00245
20 | GGCCATCCATGGACCGGTTTTCCCGGTAATCCGTATTTGTT (site GGCCATCCTAA) | 0.0172
21 | GGCCCGCCATGGACCGGTTTTCCCGGTAATCCGTATTTGCC (site GGCCCGCCTGG) | 0
22 | GGCCCTACATGGACCGGTTTTCCCGGTAATCCGTATTTGTG (site GGCCCTACTCA) | 0.33
23 | GGCCGCACATGGACCGGTTTTCCCGGTAATCCGTATTTGCA (site GGCCGCACTTG) | 1.77
24 | GGCCGCCCATGGACCGGTTTTCCCGGTAATCCGTATTTGTT (site GGCCACCCTAA) | 0.0225
25 | GGCCGCCCATGGACCGGTTTTCCCGGTAATCCGTATTTGTT (site GGCCCCCCTAA) | 0.00441

Row | Sequence | recombinant UMI read abundance (log10)
26 | GGCCGCCCATGGACCGGTTTTCCCGGTAATCCGTATTTGTT (site GGCCGCCCTAA) | 0.00876
27 | GGCCGCCCATGGACCGGTTTTCCCGGTAATCCGTATTTGTT (site GGCCTCCCTAA) | 0.0158
28 | GGCCGTACATGGACCGGTTTTCCCGGTAATCCGTATTTGCT (site AGCCGTACTAG) | 0.00424
29 | GGCCGTACATGGACCGGTTTTCCCGGTAATCCGTATTTGCT (site CGCCGTACTAG) | 0.413
30 | GGCCGTACATGGACCGGTTTTCCCGGTAATCCGTATTTGCT (site GGCCGTACTAG) | 1.83
31 | GGCCGTACATGGACCGGTTTTCCCGGTAATCCGTATTTGCT (site TGCCGTACTAG) | 0.302
32 | GGCCTTTCATGGACCGGTTTTCCCGGTAATCCGTATTTGAC (site AGCCTTTCTGT) | 0
33 | GGCCTTTCATGGACCGGTTTTCCCGGTAATCCGTATTTGAC (site CGCCTTTCTGT) | 0
34 | GGCCTTTCATGGACCGGTTTTCCCGGTAATCCGTATTTGAC (site GGCCTTTCTGT) | 0
35 | GGCCTTTCATGGACCGGTTTTCCCGGTAATCCGTATTTGAC (site TGCCTTTCTGT) | 0
36 | GGCCTTTCATGGACCGGTTTTCCCGGTAATCCGTATTTGTC (site GGCCTTTCTGA) | 1.46
37 | GGCGATCCATGGACCGGTTTTCCCGGTAATCCGTATTTGAA (site GGCAATCCTTT) | 0.0192
38 | GGCGATCCATGGACCGGTTTTCCCGGTAATCCGTATTTGAA (site GGCCATCCTTT) | 0.0198
39 | GGCGATCCATGGACCGGTTTTCCCGGTAATCCGTATTTGAA (site GGCGATCCTTT) | 0.785
40 | GGCGATCCATGGACCGGTTTTCCCGGTAATCCGTATTTGAA (site GGCTATCCTTT) | 0.141
41 | GGCGCCTCATGGACCGGTTTTCCCGGTAATCCGTATTTGGG (site GGCGCCTCTCC) | 0.0423
42 | GGCGGGGCATGGACCGGTTTTCCCGGTAATCCGTATTTGTA (site GGCGGGGCTTA) | 1.53
43 | GGCGTAGCATGGACCGGTTTTCCCGGTAATCCGTATTTGTG (site GGCGTAGCTCA) | 0.747
44 | GGCTAGGCATGGACCGGTTTTCCCGGTAATCCGTATTTGGT (site AGCTAGGCTAC) | 0.208
45 | GGCTAGGCATGGACCGGTTTTCCCGGTAATCCGTATTTGGT (site CGCTAGGCTAC) | 0.399
46 | GGCTAGGCATGGACCGGTTTTCCCGGTAATCCGTATTTGGT (site GGCTAGGCTAC) | 0.271
47 | GGCTAGGCATGGACCGGTTTTCCCGGTAATCCGTATTTGGT (site TGCTAGGCTAC) | 0.0118
48 | GGCTCAGCATGGACCGGTTTTCCCGGTAATCCGTATTTGGG (site AGCTCAGCTCC) | 0.00802
49 | GGCTCAGCATGGACCGGTTTTCCCGGTAATCCGTATTTGGG (site CGCTCAGCTCC) | 0.0293
50 | GGCTCAGCATGGACCGGTTTTCCCGGTAATCCGTATTTGGG (site GGCTCAGCTCC) | 0.02

Row | Sequence | recombinant UMI read abundance (log10)
51 | GGCTCAGCATGGACCGGTTTTCCCGGTAATCCGTATTTGGG (site TGCTCAGCTCC) | 0.00932
52 | GGCTGACCATGGACCGGTTTTCCCGGTAATCCGTATTTGAA (site GGCTGACCTTT) | 0.00353
53 | GGCTTAACATGGACCGGTTTTCCCGGTAATCCGTATTTGTC (site GGCTTAACTGA) | 0.732
54 | GGGAAGACATGGACCGGTTTTCCCGGTAATCCGTATTTGGC (site GGGAAGACTGC) | 1.57
55 | GGGACCTCATGGACCGGTTTTCCCGGTAATCCGTATTTGGT (site GGGACCTCTAC) | 2
56 | GGGACCTCATGGACCGGTTTTCCCGGTAATCCGTATTTGTA (site GGGACCTCTTA) | 2.24
57 | GGGACGACATGGACCGGTTTTCCCGGTAATCCGTATTTGCA (site AGGAAGACTTG) | 0
58 | GGGACGACATGGACCGGTTTTCCCGGTAATCCGTATTTGCA (site GGGACGACTTG) | 2.07
59 | GGGAGTCCATGGACCGGTTTTCCCGGTAATCCGTATTTGTT (site CGGAATCCTAA) | 0.00442
60 | GGGAGTCCATGGACCGGTTTTCCCGGTAATCCGTATTTGTT (site GGGAGTCCTAA) | 0.709
61 | GGGAGTTCATGGACCGGTTTTCCCGGTAATCCGTATTTGCA (site GGGAGTTCTTG) | 1.13
62 | GGGATCTCATGGACCGGTTTTCCCGGTAATCCGTATTTGGG (site GGGATCTCTCC) | 1.71
63 | GGGATTTCATGGACCGGTTTTCCCGGTAATCCGTATTTGGG (site GGGATTTCTCC) | 0.679
64 | GGGCACCCATGGACCGGTTTTCCCGGTAATCCGTATTTGTT (site GGACACCCTAA) | 0.0162
65 | GGGCACCCATGGACCGGTTTTCCCGGTAATCCGTATTTGTT (site GGCCACCCTAA) | 0.161
66 | GGGCACCCATGGACCGGTTTTCCCGGTAATCCGTATTTGTT (site GGGCACCCTAA) | 0.325
67 | GGGCACCCATGGACCGGTTTTCCCGGTAATCCGTATTTGTT (site GGTCACCCTAA) | 0.268
68 | GGGCCGGCATGGACCGGTTTTCCCGGTAATCCGTATTTGGC (site AGGCCGGCTGC) | 0
69 | GGGCCGGCATGGACCGGTTTTCCCGGTAATCCGTATTTGGC (site CGGCCGGCTGC) | 0
70 | GGGCCGGCATGGACCGGTTTTCCCGGTAATCCGTATTTGGC (site GGGCCGGCTGC) | 0
71 | GGGCCGGCATGGACCGGTTTTCCCGGTAATCCGTATTTGGC (site TGGCCGGCTGC) | 0
72 | GGGCCTACATGGACCGGTTTTCCCGGTAATCCGTATTTGGG (site GGGCCTACTCC) | 0
73 | GGGCTCACATGGACCGGTTTTCCCGGTAATCCGTATTTGAT (site GAGCTCACTAT) | 0.00773
74 | GGGCTCACATGGACCGGTTTTCCCGGTAATCCGTATTTGAT (site GCGCTCACTAT) | 0.802
75 | GGGCTCACATGGACCGGTTTTCCCGGTAATCCGTATTTGAT (site GGGCTCACTAT) | 1.73
